Assay [1] relates to VCaP human prostate cancer cells. Put plainly: VCaP proliferation assay (CellTiter-Glo), single agents and combination index. The format is cell-based. On the procedure:
(§1) Cell lines derived from human prostate cancer metastasis were used (Table 1).
(§2) After one day, the cells were treated with R1881 (10 nM) and 1 nM to 10 μM compounds (day 0). Cell number was determined following addition of CellTiter-Glo® (Promega) at day 0 and day 6. Luminescence was determined in a Victor X3 device (PerkinElmer). The inhibition of cell growth was calculated by normalization with respect to the luminescence reading (cell number) measured at the end of the experiment for cells treated with R1881 alone compared to the fluorescence reading (cell number) measured at the end of the experiment for DMSO-treated cells. […] After one day, the cells were treated with R1881 (0.1 nM) and 1 nM to 10 μM compounds (day 0). Cell number was determined following addition of CellTiter-Glo® (Promega) at day 0 and day 6. Luminescence was determined in a Victor X3 device […]. The inhibition of cell growth was calculated by normalization with respect to the luminescence reading (cell number) measured at the end of the experiment for cells treated with R1881 alone compared to the fluorescence reading (cell number) measured at the start of the experiment for DMSO-treated cells.
(§3) The Combination Index (CI) was determined for the two compound ratios closest to the ratio of the respective IC50 values of each compound alone.

Assay [2] has as its system LAPC-4 human prostate cancer cells. Nature of the assay: LAPC-4 proliferation assay (CellTiter-Glo), single agents and combination index. It counts as cell-based. On the procedure: as §1, §2, §3
The target of assay [3] is androgen receptor (Homo sapiens, UniProt P10275). To be noted: cited from earlier work.
For assay [4], the system named is androgen receptor. Conditions: cited from earlier work.
Another assay deals with mTOR (Homo sapiens, UniProt P42345). To be noted: cited from earlier work.
Another assay has as its system PI3K isoforms. Conditions: cited from earlier work.
[5] abbreviates: Homo sapiens, VCaP, 144 h, VCaP cells, single agent, R1881 0.1 nM, day 6, read-out: Compound A IC50.
The mark [6] stands for this setting: Homo sapiens, LAPC4, 144 h, LAPC-4 cells, single agent, R1881 10 nM, day 6, read-out: Compound A IC50.

Where “and” joins values, the source holds several entries; their conditions need not be identical. Equal values may be shown once. Where a name gives a salt, the structure may show the parent alone. Read-outs that look alike come from different tables or passages of the source.

The values below come from patent publication US11185549B2, “Combination of a PI3K-inhibitor with an androgen receptor antagonist” (priority 2017, dated 2021).

Sequence of androgen receptor (Homo sapiens, UniProt P10275) (P10275 whole entry, species assumed): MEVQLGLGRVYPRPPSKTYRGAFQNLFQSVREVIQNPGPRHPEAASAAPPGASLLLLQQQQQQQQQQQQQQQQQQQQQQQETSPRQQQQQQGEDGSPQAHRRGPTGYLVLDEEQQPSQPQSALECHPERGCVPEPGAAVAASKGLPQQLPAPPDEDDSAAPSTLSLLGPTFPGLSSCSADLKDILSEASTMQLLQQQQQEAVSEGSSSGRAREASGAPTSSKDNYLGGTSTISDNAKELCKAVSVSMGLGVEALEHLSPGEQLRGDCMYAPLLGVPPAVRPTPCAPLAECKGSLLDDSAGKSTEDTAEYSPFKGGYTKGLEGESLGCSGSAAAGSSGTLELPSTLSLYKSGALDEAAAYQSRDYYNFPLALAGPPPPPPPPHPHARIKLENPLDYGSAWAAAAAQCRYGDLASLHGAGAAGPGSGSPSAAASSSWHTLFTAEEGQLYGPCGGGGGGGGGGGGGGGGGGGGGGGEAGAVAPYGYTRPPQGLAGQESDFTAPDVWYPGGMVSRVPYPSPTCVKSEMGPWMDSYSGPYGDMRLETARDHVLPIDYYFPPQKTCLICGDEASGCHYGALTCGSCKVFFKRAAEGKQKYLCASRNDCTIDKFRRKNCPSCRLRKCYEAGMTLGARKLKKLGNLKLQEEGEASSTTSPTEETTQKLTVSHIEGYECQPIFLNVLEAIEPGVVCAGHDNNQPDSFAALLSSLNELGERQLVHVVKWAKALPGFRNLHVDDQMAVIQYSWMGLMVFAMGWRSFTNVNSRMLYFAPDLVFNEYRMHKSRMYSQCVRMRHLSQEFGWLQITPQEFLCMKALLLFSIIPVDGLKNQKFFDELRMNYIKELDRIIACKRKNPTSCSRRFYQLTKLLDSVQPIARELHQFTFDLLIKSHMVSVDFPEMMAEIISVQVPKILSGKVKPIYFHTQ

For `COc1c(OCCCN2CCOCC2)ccc2c1N=C(NC(=O)c1cnc(N)nc1)N1CCN=C21` [Copanlisib, 2-amino-N-[7-methoxy-8-(3-morpholin-4-ylpropoxy)-2,3-dihydroimidazo[1,2-c]quinazolin-5-yl]pyrimidine-5-carboxamide dihydrochloride], the IC50 in assay [1] (setting [5]) is 9 nM; in assay [2] (setting [6]) it was 41 nM; in assay [2] (LAPC-4 cells, single agent, R1881 10 nM, day 6, dihydrochloride, read-out: Compound A IC50) it was 49 nM.

Regarding `CC(O)c1cc(C(=O)N[C@@H](C)Cn2ccc(-c3ccc(C#N)c(Cl)c3)n2)[nH]n1` (some centres unmarked) [Darolutamide], the IC50 is 350 nM in assay [1] (Homo sapiens, VCaP, 144 h, read-out: Compound B IC50, VCaP cells, single agent, R1881 0.1 nM, day 6); 417 nM and 557 nM in assay [1] (read-out: Compound B IC50, VCaP cells, single agent, R1881 0.1 nM, day 6); 263 nM in assay [2] (Homo sapiens, LAPC4, 144 h, read-out: Compound B IC50, LAPC-4 cells, single agent, R1881 10 nM, day 6); 366 nM in assay [2] (read-out: Compound B IC50, LAPC-4 cells, single agent, R1881 10 nM, day 6). Moreover, the “inhibition of transactivation function” value at androgen receptor [3] is listed as “high inhibition”. In the assay on androgen receptor [4], the “binding affinity for the androgen receptor” value is “low nanomolar”.

In the case of `Cc1c(CN2CCN(C(=O)[C@H](C)O)CC2)sc2c(N3CCOCC3)nc(-c3cnc(N)nc3)nc12` [Apitolisib], the “activity against mTOR” value at mTOR is on record as “low nanomolar”. Besides, the IC50 in assay [1] (setting [5]) amounted to 52 nM; in assay [2] (setting [6]), 12 nM; in assay [2] (LAPC-4 cells, single agent, R1881 10 nM, day 6, read-out: Compound A IC50), 13 nM. Further, the “activity against PI3K isoforms” value with PI3K isoforms is recorded as “low nanomolar”.

On to `Cn1c(=O)n(-c2ccc(C(C)(C)C#N)cc2)c2c3cc(-c4cnc5ccccc5c4)ccc3ncc21` [Dactolisib], for which the “activity against mTOR” value at mTOR is listed as “low nanomolar”. Further, the IC50 in assay [1] (setting [5]) was determined as 26 nM. In the assay on PI3K isoforms, the “activity against PI3K isoforms” value is “low nanomolar”.
